# Source: article PMC9133015 (Nature Communications, 2022)
# Values joined by “and” are separate entries in the source; they are usually repeats but may differ in a detail not shown here. Identical values can stand only once.
# Tests used:
# DU145 cells [1] = experiment: Cell cycle assay (PI flow cytometry); assay type: cell-based, human; conditions: for Cell cycle percentages ( % ) G0/G1 / Cell cycle percentages ( % ) G2/M / Cell cycle percentages ( % ) S: replicates
# 22Rv1 cells [2] = experiment: Cell cycle assay (PI flow cytometry); assay type: cell-based, human; conditions: for Cell cycle percentages ( % ) G0/G1 / Cell cycle percentages ( % ) G2/M / Cell cycle percentages ( % ) S: replicates
# DU145 cells [3] = experiment: Migration assay (transwell); assay type: cell-based, human; conditions: for Cell migration (cell number): replicates
# 22Rv1 cells [4] = experiment: Migration assay (transwell); assay type: cell-based, human; conditions: for Cell migration (cell number): replicates
# PC-3 cells [5] = experiment: Migration assay (transwell); assay type: cell-based, human; conditions: for Cell migration (cell number): PC-3, replicates
# RWPE-1 cells = experiment: Anti-proliferation activity assay (CCK8, 72 h); assay type: cell-based; conditions: for Relative proliferation rate (%) mean / Relative proliferation rate (%) / optical density: RWPE1; for Relative proliferation rate (%) / optical density: replicates
# PC-3 cells [6] = experiment: Colony formation assay; assay type: cell-based, human; conditions: replicates
# 22Rv1 cells [7] = experiment: Invasion assay (transwell); assay type: cell-based, human; conditions: for Cell invasion (cell number): replicates
# DU145 cells [8] = experiment: Invasion assay (transwell); assay type: cell-based, human; conditions: for Cell invasion (cell number): replicates
# PC-3 cells [9] = experiment: Invasion assay (transwell); assay type: cell-based, human; conditions: for Cell invasion (cell number): PC-3, replicates
smiles,measurement,setting,value
CCN1CCN(C(=O)c2ccc(Nc3ncc(F)c(-c4ccc5nc(N(C)C)sc5c4)n3)nc2)CC1 [YK-2-69],Cell cycle percentages ( % ) G0/G1,"DU145 cells [1]; DU145, 2 μM",55.97% and 56.66% and 57.2%
same,Cell cycle percentages ( % ) G2/M,"DU145 cells [1]; DU145, 2 μM",25.7% and 23.86% and 21.92%
same,Cell cycle percentages ( % ) S,"DU145 cells [1]; DU145, 2 μM",18.33% and 19.48% and 20.88%
same,Cell cycle percentages ( % ) G0/G1,"DU145 cells [1]; DU145, 4 μM",57.12% and 58.35% and 59.96%
same,Cell cycle percentages ( % ) G2/M,"DU145 cells [1]; DU145, 4 μM",23.02% and 22.58% and 21.06%
same,Cell cycle percentages ( % ) S,"DU145 cells [1]; DU145, 4 μM",19.86% and 19.07% and 18.98%
same,Cell cycle percentages ( % ) G0/G1,"DU145 cells [1]; DU145, 8 μM",61.67% and 60.91% and 63.23%
same,Cell cycle percentages ( % ) G2/M,"DU145 cells [1]; DU145, 8 μM",18.53% and 21.24% and 18.93%
same,Cell cycle percentages ( % ) S,"DU145 cells [1]; DU145, 8 μM",19.8% and 17.85% and 17.84%
same,cell cycle (in words),"DU145 cells [1]; DU145 cells, concentration-dependent",arrested cell cycle at the G0/G1 phase
same,Cell cycle percentages ( % ) G0/G1,"22Rv1 cells [2]; 22Rv1, 0.5 μM",58.59% and 61.06% and 63.23%
same,Cell cycle percentages ( % ) G2/M,"22Rv1 cells [2]; 22Rv1, 0.5 μM",21.63% and 20.2% and 19.61%
same,Cell cycle percentages ( % ) S,"22Rv1 cells [2]; 22Rv1, 0.5 μM",19.78% and 18.74% and 17.16%
same,Cell cycle percentages ( % ) G0/G1,"22Rv1 cells [2]; 22Rv1, 1 μM",66.26% and 67.95% and 69.26%
same,Cell cycle percentages ( % ) G2/M,"22Rv1 cells [2]; 22Rv1, 1 μM",16.83% and 16.42% and 15%
same,Cell cycle percentages ( % ) S,"22Rv1 cells [2]; 22Rv1, 1 μM",16.91% and 15.43% and 15.74%
same,Cell cycle percentages ( % ) G0/G1,"22Rv1 cells [2]; 22Rv1, 2 μM",71.88% and 73.05% and 74.35%
same,Cell cycle percentages ( % ) G2/M,"22Rv1 cells [2]; 22Rv1, 2 μM",13.63% and 11.7% and 11.68%
same,Cell cycle percentages ( % ) S,"22Rv1 cells [2]; 22Rv1, 2 μM",14.49% and 15.25% and 13.97%
same,cell cycle (in words),"22Rv1 cells [2]; 22Rv1 cells, concentration-dependent",arrested cell cycle at the G0/G1 phase
same,Cell migration (cell number),"DU145 cells [3]; DU145, 2 μM",3879 cell number and 3920 cell number and 3723 cell number
same,Cell migration (cell number),"DU145 cells [3]; DU145, 4 μM",2567 cell number and 2678 cell number and 2788 cell number
same,Cell migration (cell number),"DU145 cells [3]; DU145, 8 μM",1578 cell number and 1677 cell number and 1723 cell number
same,migration (in words),"DU145 cells [3]; DU145 cells, dose-dependent",remarkably inhibited the migration and invasion
same,Cell migration (cell number),"22Rv1 cells [4]; 22Rv1, 0.5 μM",1803 cell number and 1758 cell number and 1920 cell number
same,Cell migration (cell number),"22Rv1 cells [4]; 22Rv1, 1 μM",710 cell number and 690 cell number and 736 cell number
same,Cell migration (cell number),"22Rv1 cells [4]; 22Rv1, 2 μM",422 cell number and 380 cell number and 416 cell number
same,migration (in words),"22Rv1 cells [4]; 22Rv1 cells, dose-dependent",remarkably inhibited the migration and invasion
same,Cell migration (cell number),PC-3 cells [5]; 1 µM,189 cell number and 176 cell number and 199 cell number
same,Cell migration (cell number),PC-3 cells [5]; 2 µM,110 cell number and 105 cell number and 98 cell number
same,Cell migration (cell number),PC-3 cells [5]; 4 µM,69 cell number and 65 cell number and 74 cell number
same,migration (in words),"PC-3 cells [5]; PC-3 cells, dose-dependent",remarkably inhibited the migration and invasion
same,Relative proliferation rate (%) mean,RWPE-1 cells; 0.078 uM,1.172%
same,Relative proliferation rate (%),RWPE-1 cells; 0.078 uM,1.172% and 0.4794% and 1.866%
same,optical density,RWPE-1 cells; 0.078 uM,1.096 and 1.038 and 1.052
same,Relative proliferation rate (%) mean,RWPE-1 cells; 0.3125 uM,5.563%
same,Relative proliferation rate (%),RWPE-1 cells; 0.3125 uM,5.591% and 3.3557% and 7.743%
same,optical density,RWPE-1 cells; 0.3125 uM,1.047 and 1.008 and 0.989
same,Relative proliferation rate (%) mean,RWPE-1 cells; 1.25 uM,13.0424%
same,Relative proliferation rate (%),RWPE-1 cells; 1.25 uM,13.0748% and 7.862% and 18.1903%
same,optical density,RWPE-1 cells; 1.25 uM,0.964 and 0.961 and 0.877
same,Relative proliferation rate (%) mean,RWPE-1 cells; 5 uM,20.9606%
same,Relative proliferation rate (%),RWPE-1 cells; 5 uM,21.0099% and 16.7785% and 25.0933%
same,optical density,RWPE-1 cells; 5 uM,0.876 and 0.868 and 0.803
same,Relative proliferation rate (%) mean,RWPE-1 cells; 20 uM,54.7483%
same,Relative proliferation rate (%),RWPE-1 cells; 20 uM,54.734% and 48.1304% and 61.3806%
same,optical density,RWPE-1 cells; 20 uM,0.502 and 0.541 and 0.414
same,Relative proliferation rate (%) mean,RWPE-1 cells; 80 uM,72.5701%
same,Relative proliferation rate (%),RWPE-1 cells; 80 uM,72.5879% and 64.5254% and 80.597%
same,optical density,RWPE-1 cells; 80 uM,0.304 and 0.37 and 0.208
same,inhibitory activity against proliferation (in words),RWPE-1 cells; RWPE-1 cells,weak inhibitory activity
same,Colony formation (cell number),PC-3 cells [6]; 1 µM,40 cell number and 45 cell number and 35 cell number
same,Colony formation (cell number),PC-3 cells [6]; 2 µM,10 cell number and 12 cell number and 9 cell number
same,Colony formation (cell number),PC-3 cells [6]; 4 µM,5 cell number and 6 cell number
same,Cell invasion (cell number),"22Rv1 cells [7]; 22Rv1, 0.5 μM",990 cell number and 970 cell number and 1020 cell number
same,Cell invasion (cell number),"22Rv1 cells [7]; 22Rv1, 1 μM",730 cell number and 680 cell number and 710 cell number
same,Cell invasion (cell number),"22Rv1 cells [7]; 22Rv1, 2 μM",520 cell number and 490 cell number and 509 cell number
same,invasion (in words),"22Rv1 cells [7]; 22Rv1 cells, dose-dependent",remarkably inhibited the migration and invasion
same,Cell invasion (cell number),"DU145 cells [8]; DU145, 2 μM",340 cell number and 358 cell number and 328 cell number
same,Cell invasion (cell number),"DU145 cells [8]; DU145, 4 μM",258 cell number and 240 cell number and 252 cell number
same,Cell invasion (cell number),"DU145 cells [8]; DU145, 8 μM",87 cell number and 91 cell number and 82 cell number
same,invasion (in words),"DU145 cells [8]; DU145 cells, dose-dependent",remarkably inhibited the migration and invasion
same,Cell invasion (cell number),PC-3 cells [9]; 1 µM,2987 cell number and 3005 cell number and 2946 cell number
same,Cell invasion (cell number),PC-3 cells [9]; 2 µM,2589 cell number and 2699 cell number and 2710 cell number
same,Cell invasion (cell number),PC-3 cells [9]; 4 µM,489 cell number and 503 cell number and 468 cell number
same,invasion (in words),"PC-3 cells [9]; PC-3 cells, dose-dependent",remarkably inhibited the migration and invasion
